Test results published in US20240072809A1, “ASGPR-BINDING COMPOUNDS FOR THE DEGRADATION OF EXTRACELLULAR PROTEINS” (Avilar Therapeutics, Inc., priority 2020, published 2024).

target: ASGPR (Homo sapiens (Human), UniProt P07306); assay: Affinity to ASGPR measured by surface plasmon resonance (SPR); type: binding; conditions: ASGPR ligands, Table 4; class symbols; read-out: ASGPR_PR Binding KD
Sequence (P07306 whole entry): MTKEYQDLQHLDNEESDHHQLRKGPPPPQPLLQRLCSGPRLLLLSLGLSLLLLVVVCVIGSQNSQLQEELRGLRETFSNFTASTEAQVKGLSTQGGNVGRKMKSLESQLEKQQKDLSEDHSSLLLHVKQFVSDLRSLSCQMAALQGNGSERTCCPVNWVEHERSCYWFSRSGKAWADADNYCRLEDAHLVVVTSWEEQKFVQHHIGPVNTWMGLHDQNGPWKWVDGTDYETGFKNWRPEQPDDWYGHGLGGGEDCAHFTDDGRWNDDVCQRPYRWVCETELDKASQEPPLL

SMILES | Kd
COc1nc(C#N)nc(N[C@H]2CO[C@H](CO)[C@H](O)[C@@H]2O)n1 [Compound A349, 4-(((3S,4R,5R,6R)-4,5-dihydroxy-6-(hydroxymethyl)tetrahydro-2H-pyran-3-yl)amino)-6-methoxy-1,3,5-triazine-2-carbonitrile] | < 100 µM
OC[C@H]1OC[C@H](Nc2nc3ccccc3s2)[C@@H](O)[C@H]1O [Compound A354, (2R,3R,4R,5S)-5-(benzo[d]thiazol-2-ylamino)-2-(hydroxymethyl)tetrahydro-2H-pyran-3,4-diol] | < 100 µM
OC[C@H]1OC[C@H](Nc2cccc(C(F)(F)F)c2)[C@@H](O)[C@H]1O [Compound A355, (2R,3R,4R,5S)-2-(hydroxymethyl)-5-((3-(trifluoromethyl)phenyl)amino) tetrahydro-2H-pyran-3,4-diol] | < 100 µM
OC[C@H]1OC[C@H](Nc2nc(-c3cccnc3)ns2)[C@@H](O)[C@H]1O [Compound A358, (2R,3R,4R,5S)-2-(hydroxymethyl)-5-((3-(pyridin-3-yl)-1,2,4-thiadiazol-5-yl)amino)tetrahydro-2H-pyran-3,4-diol] | < 100 µM
COc1cc(N[C@H]2CO[C@H](CO)[C@H](O)[C@@H]2O)nc(C(F)(F)F)n1 [Compound A359, (2R,3R,4R,5S)-2-(hydroxymethyl)-5-((6-methoxy-2-(trifluoromethyl)pyrimidin-4-yl)amino)tetrahydro-2H-pyran-3,4-diol] | < 100 µM
COc1cc(N[C@H]2CO[C@H](CO)[C@H](O)[C@@H]2O)nc(OC)n1 [Compound A363, (2R,3R,4R,5S)-5-((2,6-dimethoxypyrimidin-4-yl)amino)-2-(hydroxymethyl) tetrahydro-2H-pyran-3,4-diol] | < 100 µM
COc1cc(C#N)cc(N[C@H]2CO[C@H](CO)[C@H](O)[C@@H]2O)n1 [Compound A364, 2-(((3S,4R,5R,6R)-4,5-dihydroxy-6-(hydroxymethyl)tetrahydro-2H-pyran-3-yl)amino)-6-methoxyisonicotinonitrile] | < 100 µM
CCOc1cc(Cl)nc(N[C@H]2CO[C@H](CO)[C@H](O)[C@@H]2O)n1 [Compound A367, (2R,3R,4R,5S)-5-((4-chloro-6-ethoxypyrimidin-2-yl)amino)-2-(hydroxymethyl)tetrahydro-2H-pyran-3,4-diol] | < 100 µM

same assay, conditions: ASGPR ligands, Table 4; numeric lower bounds; read-out: ASGPR_PR Binding KD

SMILES | Kd
N#Cc1cc(N[C@H]2CO[C@H](CO)[C@H](O)[C@@H]2O)nc(C#N)n1 [Compound A348, 6-(((3S,4R,5R,6R)-4,5-dihydroxy-6-(hydroxymethyl)tetrahydro-2H-pyran-3-yl)amino)pyrimidine-2,4-dicarbonitrile] | > 20 µM
COc1cc(N2CCN(C)CC2)nc(N[C@H]2CO[C@H](CO)[C@H](O)[C@@H]2O)n1 [Compound A350, (2R,3R,4R,5S)-2-(hydroxymethyl)-5-((4-methoxy-6-(4-methylpiperazin-1-yl)pyrimidin-2-yl)amino)tetrahydro-2H-pyran-3,4-diol] | > 20 µM
CSc1cc(N[C@H]2CO[C@H](CO)[C@H](O)[C@@H]2O)nc(C#N)n1 [Compound A351, 4-(((3S,4R,5R,6R)-4,5-dihydroxy-6-(hydroxymethyl)tetrahydro-2H-pyran-3-yl)amino)-6-(methylthio)pyrimidine-2-carbonitrile] | > 20 µM
CSc1cc(N[C@H]2CO[C@H](CO)[C@H](O)[C@@H]2O)nc(C(N)=O)n1 [Compound A352, 4-(((3S,4R,5R,6R)-4,5-dihydroxy-6-(hydroxymethyl)tetrahydro-2H-pyran-3-yl)amino)-6-(methylthio)pyrimidine-2-carboxamide] | > 20 µM
OC[C@H]1OC[C@H](Nc2cc(C(F)(F)F)ccn2)[C@@H](O)[C@H]1O [Compound A356, (2R,3R,4R,5S)-2-(hydroxymethyl)-5-((4-(trifluoromethyl)pyridin-2-yl)amino)tetrahydro-2H-pyran-3,4-diol] | > 20 µM
COc1cc(C(N)=O)cc(N[C@H]2CO[C@H](CO)[C@H](O)[C@@H]2O)n1 [Compound A365, 2-(((3S,4R,5R,6R)-4,5-dihydroxy-6-(hydroxymethyl)tetrahydro-2H-pyran-3-yl)amino)-6-methoxyisonicotinamide] | > 20 µM
